The text below walks through data of patent US20080166408A1, “Oral Dosage Form Comprising Rosiglitazone” (priority 2005, published 2008).

The nature of this data set: pH dependent solubility of Compound A. It counts as physicochemical. The conditions noted are these: acidic conditions of the stomach (around pH 2) versus near neutral conditions of the lower intestine (around pH 7); Compound A and its salts or solvates, in particular the maleate salt.

As for `CN(CCOc1ccc(CC2SC(=O)NC2=O)cc1)c1ccccn1` (stereo not shown) [Compound A, 5-[4-[2-(N-methyl-N-(2 pyridyl)amino)ethoxy]benzyl]thiazolidine-2,4-dione], the pH dependent solubility result is reported as “more soluble in the acidic conditions of the stomach (around pH 2) than in the near neutral conditions of the lower intestine (around pH 7)”.
